ChEMBL document CHEMBL5329215, “Review and prospects of targeted therapies for Spleen tyrosine kinase (SYK)” (Bioorg Med Chem, 2023)

What was measured:
[1] = molecular target: Tyrosine-protein kinase SYK (Homo sapiens, UniProt P43405); experiment: Inhibition of human SYK at Py+3 pocket
[2] = PROTAC activity at E3 ubiquitin ligase (unknown origin)/STAT5 (unknown origin) assessed as […]

IC50 [1] [µM] | EC50 [2] [µM] | Compound
38 | – | O=C(O)CCCCN(CCCC1CCCCC1)S(=O)(=O)/C=C/c1ccc(NC(=O)C2CCC(C(C(=O)O)C(=O)O)CC2)cc1 (configuration not stated)
– | 0.1 | CN(CCCC#Cc1cccc2c1CN(C1CCC(=O)NC1=O)C2=O)C(=O)CCN(C(=O)[C@@H]1CCCN1C(=O)[C@H](NC(=O)c1cc2cc(C(F)(F)P(=O)(O)O)ccc2s1)C(C)(C)C)c1ccc(-c2nccs2)cc1 (some centres not stated)
